This is an account of results in article PMC10390775, “CETP inhibitor evacetrapib enters mouse brain tissue” (Frontiers in Pharmacology, 2023).

The conditions of series [1]: ref Krishna et al., 2017; cited from earlier work.
The nature of series [2]: Dalcetrapib brain distribution in rats after i.v. dosing, compared with evacetrapib in mice. Format: in vivo. To be noted: rats 10 mg/kg BW dalcetrapib i.v. vs mice 40 mg/kg BW evacetrapib, ref Takubo et al., 2014.
Details of series [3]: method as in Takubo et al., 2014. The note with it: rats; ref Takubo et al., 2014; cited from earlier work.

Consider `COc1cc(F)c(C(C)C)cc1-c1ccc(C(F)(F)F)cc1CN1C(=O)O[C@H](c2cc(C(F)(F)F)cc(C(F)(F)F)c2)[C@@H]1C` [anacetrapib], for which the “Accumulation in adipose tissues” value in series [1] was “accumulate in adipose tissues”.
On to `CCC(CC)CC1(C(=O)Nc2ccccc2SC(=O)C(C)C)CCCCC1` [dalcetrapib], for which the “Dalcetrapib brain concentration relative to evacetrapib concentration” value is “twofold lower” in series [2] (0.5 h after injection) and above 20 fold in series [2] (24 h after injection). Moreover, the “Crossing of the blood–brain barrier” value in series [3] is reported as “capacity to cross the blood–brain barrier of rats”.
